Assay results reported in patent US20070244077A1, “COMPOSITION AND METHOD OF TREATING PERIPHERAL NEUROPATHY” (priority 2006, published 2007).

Experiments:
Type in all cases: in vivo, rat
[1] = tested on: streptozotocin-induced diabetic rats; assay: Tactile allodynia, 50% withdrawal force to von Frey filaments in experimentally diabetic rats; conditions: for prevention of tactile allodynia (result in words): 3 months of treatment, diabetic rats, FIG. 2, aspirin 0.3 mg/kg, VIT E 4 g/kg diet, AMG 3 g/kg diet, PJ-34 20 mg/kg daily in drinking water; for animals in which development of tactile allodynia was prevented: SFZ 150 mg/kg BW daily in drinking water, vs non-treated diabetic group
Text: Streptozotocin-induced diabetic rats (6-8 animals per group) were either left untreated or subjected to treatment with SFZ for up to 9 months. The presence of tactile allodynia was investigated at different time-points. […] Diabetic rats were either left untreated or subjected to treatment with either SFZ, the PARP inhibitor PJ-34, vitamin E (Vit E), or aminoguanidine (AMG) for 3 months. […] Experimentally diabetic rats display tactile allodynia (i.e., the perception of non-painful stimuli as painful), as evidenced by a significant decrease in the 50% withdrawal force (force at which there is a 50% probability of withdrawal) to von Frey filaments (FIGS. 1 and 2). The tactile allodynia was evident as early as 1 month after induction of diabetes and persisted throughout the experimental period (FIG. 1). Importantly, when compared to the non-treated diabetic group, administration of SFZ (150 mg/kg BW, daily, added to drinking water) prevented the development of tactile allodynia in either 50% or 80-100% of the animals after one or three months of treatment, respectively. We compared the effect of SFZ treatment on tactile allodynia in experimentally diabetic rats with those elicited by other salicylates (i.e. aspirin, 0.3 mg/kg), by the anti-oxidants Vitamin E (VIT E; 4 g/kg diet) and by aminoguanidine (AMG; 3 g/kg diet) and by the poly-ADP ribose-polymerase (PARP) inhibitor PJ-34 (20 mg/kg, daily, added to drinking water).

[2] = tested on: streptozotocin-induced diabetic rats; assay: Mechanical hyperalgesia, Randall and Selitto test in streptozotocin-induced diabetic rats; conditions: results not shown
Text: Experimentally diabetic rats display nociceptive alterations in addition to tactile allodynia.

p65 NFkB = assay: Western blot of p65 NFkB expression in sciatic nerves of diabetic rats; conditions: 3-month SFZ-treated diabetic rats, immunoblot, FIG. 3
Text: FIG. 3 is a Western blot analysis of p65 NFkB and CREB expression in sciatic nerves from individual normal (N), 3-month diabetic (D) and 3-month SFZ-treated diabetic (S) rats. Nerve proteins were subjected to SDS-PAGE and immunoblotting with antisera against p65 NFkB (left panel) or total (CREB) and phosphorylated CREB (p-CREB) (right panel). The ratio between the levels of pCREB and total CREB, in arbitrary units, is shown at the bottom of the respective lanes (numbers underneath the lanes). Blots were also probed using anti-ERK2 to control for protein loading. We carried out preliminary studies to determine the ability of commercial antibodies to detect the p65 subunit of NFkB, phospho-CREB (p-CREB) and CREB in sciatic nerve extracts (FIG. 3), as well as the possible changes in the expression of these transcription factors during experimental diabetes. The signal detected in the immunoblots is likely to reflect the presence of these transcription factors in Schwann cells, fibroblasts and/or endothelial cells. […] We are currently performing electrophoretic mobility shift assays (EMSA) to determine whether the increased immunoreactivity of p65 NFkB in diabetic nerves is paralleled by an increase in NFkB activity. At the same time, we observed a modest decrease in the levels of p-CREB relative to total CREB in diabetic nerves (FIG. 3, right panel). […]

NO = NO levels (nitrate+nitrite, fluorometric assay kit) in sciatic nerve extracts of diabetic rats; conditions: sciatic nerves; SFZ 200 mg/Kg BW daily for 9 months; mean ± SD of 3 animals
Procedure: (§1) NO levels were assayed in extracts from sciatic nerves (epineurium-free) by measuring the stable metabolites of NO (nitrate+nitrite) using a fluorometric assay kit. At the same time, the levels of PGE2 were evaluated by ELISA using a commercial kit (Cayman Chemical). In parallel samples, we also performed an immunoblot analysis to investigate possible changes in the expression of COX-2, one of the enzymes that convert arachidonic acid into PGE2.

PGE2 = PGE2 levels by ELISA in sciatic nerve extracts of diabetic rats; conditions: sciatic nerves; SFZ 200 mg/Kg BW daily for 9 months; mean ± SD of 3 animals
Procedure: as §1

COX-2 = assay: Immunoblot of COX-2 expression in sciatic nerve extracts of diabetic rats; conditions: normal vs diabetic vs SFZ-treated diabetic animals, FIG. 5
Procedure: as §1

adenosine derivatives = assay: Reverse-phase HPLC of adenosine derivatives (inosine, AMP) in sciatic nerve extracts of diabetic rats; conditions: total sciatic nerves; SFZ 200 mg/Kg BW daily for 9 months; mean ± SEM of 4 animals
Text: Administration of either adenosine or of adenosine kinase or adenosine deaminase inhibitors appears to increase nociception thresholds. Two studies have reported that acute administration of either adenosine or adenosine kinase inhibitors can prevent some nerve abnormalities in experimental diabetes. […] However, no studies have investigated the eventual changes in levels of adenosine (or its metabolites) in diabetic nerves. […] Given these precedents, and to determine whether the beneficial effects of SFZ might be mediated through changes in adenosine levels, we measured the levels of this nucleoside in sciatic nerve extracts. Separation of adenosine derivatives was performed by reverse-phase HPLC in […]. This method allows proper separation of ATP, ADP, AMP, adenosine and inosine standards (FIG. 6). Under our experimental conditions we didn't detect an adenosine peak in the sciatic nerve extracts, but we typically observed small peaks corresponding to ATP and ADP and two relatively large peaks corresponding to AMP and inosine (a metabolite obtained by deamination of adenosine) (FIG. 7). The lack of an adenosine peak following fractionation of the sciatic nerve extracts is consistent with metabolism to AMP and/or with the presence of significant adenosine deaminase activity in these samples (and complete degradation to inosine and other breakdown products). […] The analysis of the elution profiles corresponding to sciatic nerve extracts prepared from normal, diabetic and SFZ-treated diabetic rats is summarized in Table 3. We observed that the SFZ-treated diabetic rats display an increase of inosine and a decrease in AMP levels. The design of these experiments could be improved to include the derivatization of samples (and increase the resolution of the ATP and ADP peaks) and/or dual analysis of samples to improve separation of overlapping components.

Which “prevention of tactile allodynia (result in words)” value [1] does the source give for O=C(O)c1cc(/N=N/c2ccc(S(=O)(=O)Nc3ccccn3)cc2)ccc1O [SFZ, 5([p(2-pyridylsulfamoyl)phenyl]azo)salicylic acid] here?
The value was “completely prevents the development of tactile allodynia”.

And the “animals in which development of tactile allodynia was prevented” value ([1]; after one month of treatment)?
Its value is 50%.

What about the “animals in which development of tactile allodynia was prevented” value ([1]; after three months of treatment) of the same compound?
The value was 80-100%.

What about the “prevention of tactile allodynia over time (result in words)” value ([1]; treatment for up to 9 months, different time-points, FIG. 1) of the same compound?
Its value is “prevents the development of tactile allodynia”.

What about the “effect on mechanical withdrawal thresholds (mechanical hyperalgesia)” value [2] of the same compound?
The value was “modest amelioration of the mechanical thresholds that was not statistically significant”.

What about the “diabetes-induced increase in expression of p65 NFkB in sciatic nerves” value (p65 NFkB) of the same compound?
Its value is “can be prevented by SFZ treatment”.

What about the NO (NO) of the same compound?
Its NO is 3.08 ± 0.25 nmoles/mg protein.

And the PGE2 (PGE2)?
Its PGE2 is 366 ± 220 pmoles/mg protein.

What about the “expression of COX-2 in sciatic nerve” value (COX-2) of the same compound?
Its value is “did not observe any significant changes”.

And the AMP (adenosine derivatives)?
The AMP was 2.04 ± 0.37 nmoles/mg protein.

And the Inosine (adenosine derivatives)?
Its Inosine is 5.25 ± 0.64 nmoles/mg protein.

What about the Inosine/AMP (adenosine derivatives) of the same compound?
The Inosine/AMP was 2.71 ± 1.34.

Which “prevention of tactile allodynia (result in words)” value [1] does the source give for Vitamin E [VIT E] here?
Its value is “partial prevention of tactile allodynia”.

CN(C)CC(=O)Nc1ccc2[nH]c(=O)c3ccccc3c2c1 [PJ-34] was tested. Which “prevention of tactile allodynia (result in words)” value [1] did it give?
Its value is “partial prevention of tactile allodynia”.

Which “prevention of tactile allodynia (result in words)” value [1] does the source give for CC(=O)Oc1ccccc1C(=O)O [aspirin] here?
The value was “partial prevention of tactile allodynia”.

For N=C(N)NN [AMG, aminoguanidine], which “prevention of tactile allodynia (result in words)” value [1] is on record?
The value was “partial prevention of tactile allodynia”.
